Experimental data from PMC8131319, “The molecular basis of spectral tuning in blue- and red-shifted flavin-binding fluorescent proteins” (The Journal of Biological Chemistry, 2021).

What was measured:
Test in all cases: X-ray crystallography
Type in all cases: binding
[1] = molecular target: T1, iLOV (Arabidopsis thaliana, UniProt P93025, S394T/S409G/C426A/I452T/F470L/M475V/Q489K); details: 1.45 Å; space group P4_32_12; pH 4.6; noncovalent; acetate ion near FMN-N5
T1 construct: gene PHOT2; improved LOV2 domain (about residues 387-496 of phot2), expressed in E. coli from pET28a, His-tag (IMAC), monomer about 10 kDa
T1 sequence (P93025 387-496 S394T/S409G/C426A/I452T/F470L/M475V/Q489K limits assumed): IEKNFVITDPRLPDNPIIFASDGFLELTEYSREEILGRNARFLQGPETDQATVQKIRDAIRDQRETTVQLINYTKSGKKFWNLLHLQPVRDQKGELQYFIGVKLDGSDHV

[2] = molecular target: T2, CagFbFP (Chloroflexus aggregans, UniProt B8GAY9, I52T/C85A); details: pH 5.5; noncovalent; structure virtually identical to parental CagFbFP
T2 construct: gene Cagg_3753; LOV domain from residue 47 (about 47-153), C-terminal His-tag, expressed in E. coli from pET11, homodimer
T2 sequence (B8GAY9 entry or part of it I52T/C85A): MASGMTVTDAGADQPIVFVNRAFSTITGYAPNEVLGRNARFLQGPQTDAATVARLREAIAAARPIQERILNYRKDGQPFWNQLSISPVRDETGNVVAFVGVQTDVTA

[3] = molecular target: T3, CagFbFP (Chloroflexus aggregans, UniProt B8GAY9, I52T/C85A/Q148K); details: 1.8 Å; space group P2_12_12; pH 5.0; noncovalent
T3 construct: gene Cagg_3753; LOV domain from residue 47 (about 47-153), C-terminal His-tag, expressed in E. coli from pET11, homodimer
T3 sequence (B8GAY9 entry or part of it I52T/C85A/Q148K): as the sequence (B8GAY9 entry or part of it I52T/C85A) above, with Q102K counted along it

[4] = molecular target: T4, CagFbFP (Chloroflexus aggregans, UniProt B8GAY9, C85A/Q148K); details: 1.36 Å; pH 6.5; noncovalent; morpholine fragment near FMN; second structure 6YX6
T4 construct: gene Cagg_3753; LOV domain from residue 47 (about 47-153), C-terminal His-tag, expressed in E. coli from pET11, homodimer
T4 sequence (B8GAY9 entry or part of it C85A/Q148K): as the sequence (B8GAY9 entry or part of it I52T/C85A) above, with T6I, Q102K counted along it

## Cc1cc2nc3c(=O)[nH]c(=O)nc-3n(C[C@H](O)[C@H](O)[C@H](O)COP(=O)(O)O)c2cc1C [FMN]
[1]
  X-ray crystallography: hydrogen bond network to FMN and N468
[2]
  X-ray crystallography: X-ray structure of CagFbFP-I52T
[3]
  X-ray crystallography: structure of CagFbFP–I52T–Q148K with hydrogen bonds between K148, T52, and the FMN
[4]
  X-ray crystallography: side chain of the introduced lysine is facing away from FMN
